{
  "source": "patent US4629781A",
  "about": "“Chemical process for preparing L 17392 (deglucoteicoplanin) and its salts” (Gruppo Lepetit S.p.A., priority 1983, dated 1986)",
  "key": {"[1]": {"tested_on": "Staphylococcus aureus Tour", "assay": "In vitro antibacterial activity, two-fold dilution method in microtiter system (MIC)", "format": "cell-based", "description": "The in vitro antibacterial activity of deglucoteicoplanin was determined using the two-fold dilution method in microtiter system. Todd-Hewitt broth (Difco) was used for streptococci and Isosensitest broth (Oxoid) for staphylococci and gram-negative bacteria. […]"}, "[2]": {"tested_on": "Escherichia coli SKF 12140", "assay": "In vitro antibacterial activity, two-fold dilution method in microtiter system (MIC)", "format": "cell-based", "description": "(§1) The in vitro antibacterial activity of deglucoteicoplanin was determined using the two-fold dilution method in microtiter system. Todd-Hewitt broth (Difco) was used for streptococci and Isosensitest broth (Oxoid) for staphylococci and gram-negative bacteria. Overnight broth cultures were diluted so that the final inoculum was about 10^4 colony-forming units per ml (cfu/ml)."}, "[3]": {"tested_on": "Proteus vulgaris X 19 H ATCC 881", "assay": "In vitro antibacterial activity, two-fold dilution method in microtiter system (MIC)", "format": "cell-based", "description": "as §1"}, "[4]": {"tested_on": "Pseudomonas aeruginosa ATCC 10145", "assay": "In vitro antibacterial activity, two-fold dilution method in microtiter system (MIC)", "format": "cell-based", "description": "as §1"}, "[5]": {"tested_on": "Staphylococcus aureus ATCC 6538", "assay": "In vitro antibacterial activity, two-fold dilution method in microtiter system (MIC)", "format": "cell-based", "conditions": "inoculum about 10^4 cfu/ml, 18-24 hours at 37° C.", "description": "as §1"}, "[6]": {"tested_on": "Staphylococcus epidermidis ATCC 12228", "assay": "In vitro antibacterial activity, two-fold dilution method in microtiter system (MIC)", "format": "cell-based", "description": "as §1"}, "[7]": {"tested_on": "Streptococcus faecalis ATCC 7080", "assay": "In vitro antibacterial activity, two-fold dilution method in microtiter system (MIC)", "format": "cell-based", "description": "as §1"}, "[8]": {"tested_on": "Streptococcus pneumoniae UC 41", "assay": "In vitro antibacterial activity, two-fold dilution method in microtiter system (MIC)", "format": "cell-based", "description": "as §1"}, "[9]": {"tested_on": "Streptococcus pyogenes C 203 SFK 13400", "assay": "In vitro antibacterial activity, two-fold dilution method in microtiter system (MIC)", "format": "cell-based", "description": "as §1"}, "[10]": {"tested_on": "S. aureus L 1096", "assay": "MIC against clinical isolate methicillin-resistant staphylococci", "format": "cell-based", "parameters": "unit not given here", "conditions": "S. aureus L 1096, clinical isolate methicillin-resistant", "description": "as §1"}, "[11]": {"tested_on": "S. aureus L 1097", "assay": "MIC against clinical isolate methicillin-resistant staphylococci", "format": "cell-based", "parameters": "unit not given here", "conditions": "S. aureus L 1097, clinical isolate methicillin-resistant", "description": "as §1"}, "[12]": {"tested_on": "S. aureus L 1524", "assay": "MIC against clinical isolate methicillin-resistant staphylococci", "format": "cell-based", "parameters": "unit not given here", "conditions": "S. aureus L 1524, clinical isolate methicillin-resistant", "description": "as §1"}, "[13]": {"tested_on": "S. aureus L 1526", "assay": "MIC against clinical isolate methicillin-resistant staphylococci", "format": "cell-based", "parameters": "unit not given here", "conditions": "S. aureus L 1526, clinical isolate methicillin-resistant", "description": "as §1"}, "[14]": {"tested_on": "S. epidermidis 1142", "assay": "MIC against clinical isolate methicillin-resistant staphylococci", "format": "cell-based", "parameters": "unit not given here", "conditions": "S. epidermidis 1142, clinical isolate methicillin-resistant", "description": "as §1"}, "[15]": {"tested_on": "S. epidermidis 1372", "assay": "MIC against clinical isolate methicillin-resistant staphylococci", "format": "cell-based", "parameters": "unit not given here", "conditions": "S. epidermidis 1372, clinical isolate methicillin-resistant", "description": "as §1"}, "[16]": {"tested_on": "S. epidermidis 1378", "assay": "MIC against clinical isolate methicillin-resistant staphylococci", "format": "cell-based", "parameters": "unit not given here", "conditions": "S. epidermidis 1378, clinical isolate methicillin-resistant", "description": "as §1"}, "[17]": {"tested_on": "S. epidermidis 785", "assay": "MIC against clinical isolate methicillin-resistant staphylococci", "format": "cell-based", "parameters": "unit not given here", "conditions": "S. epidermidis 785, clinical isolate methicillin-resistant", "description": "as §1"}, "[18]": {"tested_on": "S. epidermidis 835", "assay": "MIC against clinical isolate methicillin-resistant staphylococci", "format": "cell-based", "parameters": "unit not given here", "conditions": "S. epidermidis 835, clinical isolate methicillin-resistant", "description": "as §1"}, "[19]": {"tested_on": "S. pyogenes", "assay": "Experimental infection in mice infected with S. pyogenes", "format": "in vivo", "conditions": "subcutaneous administration"}, "[20]": {"assay": "Solubility", "format": "physicochemical"}, "[21]": {"tested_on": "staphylococci (S. aureus, S. epidermidis)", "assay": "In vitro antibacterial activity against staphylococci (summary)", "format": "cell-based", "conditions": "in words", "description": "as §1"}, "[22]": {"tested_on": "clinical isolate methicillin-resistant staphylococci (S. aureus, S. epidermidis)", "assay": "In vitro antibacterial activity against methicillin-resistant staphylococci (summary)", "format": "cell-based", "conditions": "in words", "description": "as §1"}, "[23]": {"assay": "Potentiometric titration profile", "format": "physicochemical", "conditions": "methylcellosolve/water 4:1, titration with 0.01N NaOH after excess of 0.01N HCl"}},
  "data": [
    {"smiles": "N[C@H]1C(=O)N[C@@H]2Cc3ccc(c(Cl)c3)Oc3cc4cc(c3O)Oc3ccc(cc3Cl)[C@@H](O)[C@@H]3NC(=O)[C@H](NC(=O)[C@@H]4NC(=O)[C@@H](NC2=O)c2cc(O)cc(c2)Oc2cc1ccc2O)c1ccc(O)c(c1)-c1c(O)cc(O)cc1[C@@H](C(=O)O)NC3=O", "note": "[deglucoteicoplanin]", "values": [
      {"measurement": "MIC", "setting": "[1]; Inoculum: 10^6 cfu/ml", "value": 0.2, "unit": "µg/mL"},
      {"measurement": "MIC", "setting": "[1]; in the presence of 30% bovine serum", "value": 0.2, "unit": "µg/mL"},
      {"measurement": "MIC", "setting": "[1]; inoculum about 10^4 cfu/ml", "value": 0.05, "unit": "µg/mL"},
      {"measurement": "MIC", "setting": "[2]", "value": 25, "unit": "µg/mL"},
      {"measurement": "MIC", "setting": "[3]", "value": 50, "unit": "µg/mL"},
      {"measurement": "MIC", "setting": "[4]", "value": "> 100", "unit": "µg/mL"},
      {"measurement": "MIC", "setting": "[5]", "value": 0.025, "unit": "µg/mL"},
      {"measurement": "MIC", "setting": "[6]", "value": 0.0125, "unit": "µg/mL"},
      {"measurement": "MIC", "setting": "[7]", "value": 0.1, "unit": "µg/mL"},
      {"measurement": "MIC", "setting": "[8]", "value": 0.05, "unit": "µg/mL"},
      {"measurement": "MIC", "setting": "[9]", "value": 0.05, "unit": "µg/mL"},
      {"measurement": "MIC", "setting": "[10]", "value": 0.05},
      {"measurement": "MIC", "setting": "[11]", "value": 0.05},
      {"measurement": "MIC", "setting": "[12]", "value": 0.1},
      {"measurement": "MIC", "setting": "[13]", "value": 0.05},
      {"measurement": "MIC", "setting": "[14]", "value": 0.05},
      {"measurement": "MIC", "setting": "[15]", "value": 0.2},
      {"measurement": "MIC", "setting": "[16]", "value": 0.05},
      {"measurement": "MIC", "setting": "[17]", "value": 0.05},
      {"measurement": "MIC", "setting": "[18]", "value": 0.05},
      {"measurement": "ED50", "setting": "[19]", "value": 0.95, "unit": "mg/kg"},
      {"measurement": "solubility", "setting": "[20]; in ethyl alcohol and dimethylformamide", "value": "slightly soluble"},
      {"measurement": "solubility", "setting": "[20]; in water at a pH higher than 9 and aqueous methanol, ethanol and acetone", "value": "soluble"},
      {"measurement": "activity against staphylococci (S. aureus, S. epidermidis)", "setting": "[21]", "value": "very active"},
      {"measurement": "activity against clinical isolate methicillin-resistant staphylococci", "setting": "[22]", "value": "very effective"}
    ]},
    {"smiles": "CC(=O)N[C@@H]1[C@@H](O[C@H]2c3ccc(c(Cl)c3)Oc3cc4cc(c3O)Oc3ccc(cc3Cl)C[C@@H]3NC(=O)[C@@H](N)c5ccc(O)c(c5)Oc5cc(O)cc(c5)[C@@H](NC3=O)C(=O)N[C@@H]4C(=O)N[C@@H]3C(=O)N[C@H]2C(=O)N[C@@H](C(=O)O)c2cc(O)cc(O)c2-c2cc3ccc2O)O[C@@H](CO)[C@H](O)[C@H]1O", "note": "(stereo in doubt) [antibiotic L 17046]", "values": [
      {"measurement": "solubility", "setting": "[20]; in methanol", "value": "slightly soluble"},
      {"measurement": "solubility", "setting": "[20]; in n-hexane, ethyl ether and acetone", "value": "almost insoluble"},
      {"measurement": "solubility", "setting": "[20]; in water at pH>8.0, in dimethylformamide, dimethylsulfoxide, propyleneglycol and methylcellosolve", "value": "freely soluble"},
      {"measurement": "pH1/2 value, third titration slope", "setting": "[23]; five equivalents", "value": 11},
      {"measurement": "pH1/2 value, first titration slope", "setting": "[23]; one equivalent", "value": 5.0},
      {"measurement": "pH1/2 value, second titration slope", "setting": "[23]; one equivalent", "value": 7.0}
    ]}
  ]
}
